For orientation: IC50 means the concentration needed to halve the response being measured.

The structures appear in SMILES notation.

We go through two compounds from publication PMC7464552, “Structural Basis of Beneficial Design for Effective Nicotinamide Phosphoribosyltransferase Inhibitors” (Molecules, 2020).

One assay concerns the target T1, recombinant NAMPT (Homo sapiens, UniProt P43490).
T1 construct: purchased MEDICAL & BIOLOGICAL LABORATORIES CO., LTD; (CycLex NAMPT Colorimetric Assay Kit)
The assay is described as follows: Enzymatic NAMPT assay (CycLex NAMPT colorimetric coupled-enzyme reaction system). The format is biochemical. The settings on record: for IC50: titration curves of Figure 3a, coupled-enzyme colorimetric assay, read-out: IC50 (NAMPT inhibitory activity). How it is done: For the inhibitory effects of 3a and 3b on NAMPT activity, recombinant NAMPT activity was measured using a coupled-enzyme reaction system (CycLex NAMPT Colorimetric Assay Kit: MEDICAL & BIOLOGICAL LABORATORIES CO., LTD., Nagoya, Japan) according to the manufacturer’s instructions, as described previously. Briefly, NAMPT enzyme and tested compounds were put on the 96-well transparent plate. […] After a brief incubation, the absorbance of the samples was detected at 450 nm on every 10 min until 60 min using a SYNERGY HTX (BioTek Instruments, Inc.; Winooski, VT, USA). The inhibition rates were calculated by the initial slope of the absorbance of the tested samples divided by that of the control wells. The IC50 values for the samples were calculated by 4-parameter logistic regression using Image J 1.48v (https://imagej.nih.gov/ij/).
Figure 3 Biochemical properties of 3a and 3b. […] NAMPT activity was measured using a coupled-enzyme reaction system (CycLex NAMPT colorimetric assay kit) in 96-well plate format using the one-step method. Data are the averages of three independent experiments, and the bars indicate the standard error (SE) values. (b) The anti-proliferative effects of 3a (circle) and 3b (triangle) on HCT116 cells were investigated as described previously. HCT116 cells were treated with the indicated concentrations of each inhibitor with (closed symbol) or without (open symbol) 100 μM NMN for 72 h. The cell activity (% of control) was measured by use of the WST-8 assay. Data are presented as the means of three independent experiments ± SE, and the bars indicate the SE values.

Another assay relates to HCT116 cells. The assay can be described thus: Cell activity (anti-proliferation) assay, WST-8, 72 h. It is filed as cell-based, human. The settings on record: for rescue of HCT116 cells from cell death by supplementation of NMN: 100 μM NMN in the cell culture medium, 72 h; for EC50: Homo sapiens, HCT-116, read-out: 50% effective concentration (EC50), anti-proliferation, HCT116, continuous exposure for 72 h, WST-8. How it is done:
(§1) To confirm the marked differences of anti-NAMPT activities between 3a and 3b, the anti-proliferation effects of these inhibitors on the human colon cancer cell line HCT116 were examined after continuous exposure for 72 h. […] In addition, there was little cytotoxicity on non-cancer cell lines, such as TIG-120, WI38 and MRC-5 cells. Both 3a and 3b caused more than 90% reduction of NAD^+ levels in the cancer cells after 24 h-treatment and thereby induced cell death.
HCT116 cell was obtained from American Type Culture Collection (ATCC) (Manassas, US) and cultured in Dulbecco’s modified Eagle medium (DMEM) (FUJIFILM Wako Pure Chemical Corporation) supplemented with 10% of fetal bovine serum (Biosera Europe; Nuaillé, France), 100 Units/mL of penicillin G and 100 μg/mL of Streptomycin (FUJIFILM Wako Pure Chemical Corporation).
One thousand HCT116 cells were inoculated into the 96-well transparent cell culture plate and cultured for 24 h. The medium was changed to new medium that contained the tested compounds and was further cultivated for 72 h. Following the culture, 1/10 volume of the WST-8 reagent (FUJIFILM Wako Pure Chemical Corporation) was added and incubated for 1 h. After the incubation, the absorbance of the samples was detected at 450 nm using a SYNERGY HTX (BioTek Instruments, Inc.). Cell activity was expressed as percentage of control cells treated with vehicle alone.
Figure 3 Biochemical properties of 3a and 3b. (a) The inhibitory activities of 3a (open circle), 3b (open triangle) and 1 (open square) against NAMPT enzyme were examined, as described previously. NAMPT activity was measured using a coupled-enzyme reaction system (CycLex NAMPT colorimetric assay kit) in 96-well plate format using the one-step method. Data are the averages of three independent experiments, and the bars indicate the standard error (SE) values. (b) The anti-proliferative effects of 3a (circle) and 3b (triangle) on HCT116 cells were investigated as described previously. HCT116 cells were treated with the indicated concentrations of each inhibitor with (closed symbol) or without (open symbol) 100 μM NMN for 72 h. The cell activity (% of control) was measured by use of the WST-8 assay. Data are presented as the means of three independent experiments ± SE, and the bars indicate the SE values.
In general terms: Tetrazolium assays rely on reduction of a dye to a coloured formazan, in cell work by metabolically active cells.

Assay [1] deals with NAD+ levels in the cancer cells. The assay can be described thus: Reduction of NAD+ levels in the cancer cells after 24 h-treatment. It is filed as cell-based, human. The procedure:
as §1

T1 sequence (P43490 whole entry): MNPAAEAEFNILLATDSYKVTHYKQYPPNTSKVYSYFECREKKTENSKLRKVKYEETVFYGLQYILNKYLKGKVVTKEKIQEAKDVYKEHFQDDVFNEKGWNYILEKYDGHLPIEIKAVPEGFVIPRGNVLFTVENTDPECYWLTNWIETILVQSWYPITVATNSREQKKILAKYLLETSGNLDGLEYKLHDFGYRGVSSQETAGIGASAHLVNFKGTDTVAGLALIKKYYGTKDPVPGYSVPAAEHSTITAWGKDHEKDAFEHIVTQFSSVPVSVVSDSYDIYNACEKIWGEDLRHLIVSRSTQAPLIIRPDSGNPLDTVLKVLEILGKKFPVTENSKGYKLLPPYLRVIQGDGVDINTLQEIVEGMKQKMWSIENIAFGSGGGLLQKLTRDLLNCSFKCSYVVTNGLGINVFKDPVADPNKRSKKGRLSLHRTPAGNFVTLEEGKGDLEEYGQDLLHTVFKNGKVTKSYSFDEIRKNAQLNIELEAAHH

With `O=C(NCCCCC1CCN(C(=O)c2ccccc2)CC1)c1cc2cnccc2[nH]1` [Compound 3a, N-(4-(1-benzoylpiperidin-4-yl)butyl)-1H-pyrrolo[3,2-c]pyridine-2-carboxamide], at recombinant NAMPT (ratio of IC50 values, versus 1), the “fold stronger NAMPT inhibitory activity than 1” value is listed as “approximately 5 fold”. Besides, the IC50 at recombinant NAMPT was determined as 110 nM. For the same compound, in the assay on HCT116 cells, the “rescue of HCT116 cells from cell death by supplementation of NMN” value is “significantly rescue” and the EC50 stood at 0.48 nM. In addition, in assay [1], the “reduction of NAD+ levels” value was “more than 90%”.
Turning to `O=C(NCCCCN1CCN(C(=O)c2ccccc2)CC1)c1cc2cnccc2[nH]1` [Compound 3b, N-(4-(4-Benzoylpiperazin-1-yl)butyl)-1H-pyroro[3,2-c]pyridine-2-carboxamide], the “fold weaker NAMPT inhibitory activity than 3a” value at recombinant NAMPT (ratio of IC50 values, versus 3a) is given as “about 50 fold”. The IC50 on recombinant NAMPT turned out to be 5060 nM. In the assay with HCT116 cells, the “rescue of HCT116 cells from cell death by supplementation of NMN” value is recorded as “significantly rescue” and the EC50 turned out to be 87.5 nM. The “fold higher EC50 than 3a” value in the assay with HCT116 cells (HCT116, 72 h, ratio of EC50 values, versus 3a) is recorded as “approximately 200 fold”. The “reduction of NAD+ levels” value in assay [1] was “more than 90%”.
